Experimental data from US20160151337A1, “ANNELATED PYRROLES AND THEIR USE AS CRAC INHIBITORS” (Grünenthal GmbH, priority 2013, published 2016).

Tests used:
CRAC channel = molecular target: T1, CRAC channel (Homo sapiens, UniProt Q96D31); test: HEK Calcium Influx Assay (FLIPR), inhibition of store-operated Ca2+ entry after thapsigargin store depletion; assay type: cell-based; details: 10 μM compound, HEK293 cells, read-out: % inhib. [@ 10 μM] FLIPR
T1 construct: endogenous in cells; host or cells: HEK293 (ECACC), untransfected
T1 sequence (Q96D31 whole entry): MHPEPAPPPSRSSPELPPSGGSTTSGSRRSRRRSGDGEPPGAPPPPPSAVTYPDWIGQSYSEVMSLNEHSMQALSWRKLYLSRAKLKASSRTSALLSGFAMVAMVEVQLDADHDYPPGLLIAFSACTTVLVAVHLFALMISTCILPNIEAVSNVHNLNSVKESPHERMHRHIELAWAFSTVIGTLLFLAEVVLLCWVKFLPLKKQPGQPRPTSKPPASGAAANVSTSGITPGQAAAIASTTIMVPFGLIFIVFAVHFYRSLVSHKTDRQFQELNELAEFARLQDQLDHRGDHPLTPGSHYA
Summary of the method: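 HEK293 cells loaded with Calcium-4 dye in Ca2+-free HBS (pH 7.4), stores depleted with 2 μM thapsigargin for 10 min (100 μM EGTA); after 3 mM CaCl2 re-addition and 15 min steady-state, compounds added and FLIPR signal averaged 9.5–10 min post-dose. IC50 from 8-point 1:3.16 dilutions from 10 μM, normalised to DMSO and non-depleted wells.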

[1] = system: Interleukin-2 (IL-2) production/release in Jurkat T cells; test: Jurkat IL-2 Production Assay (PHA-stimulated, IL-2 AlphaLisa); assay type: cell-based; details: Homo sapiens, PHA 15 μg/ml, 22 h, inhibition of IL-2 production
Method: The effect of compounds of the invention on Interleukin-2 (IL-2) production/release was tested in the Jurkat T cell line (ECACC) clone E6-1.
Jurkat T cells were cultured in DMEM/F12/Glutamax (Gibco) containing 10% FCS (Gibco), and maintained at 37° C., 5% CO2. Cells were split twice a week [5*10^6 (Mon-Thu) and 1*10^7 (Thu-Mon) cells/50 ml medium in 1-175 ZK culture flasks, respectively].
Prior to experiment, cells were seeded on 96 well plates (Cellstar 96 Well; Cat No. 655180, Greiner bio-one) at a density of 5*10^5 cells/well in DMEM/F12/Glutamax (Gibco) containing 10% FCS (Gibco), and incubated for 60 min at 37° C., 5% CO2. Subsequently, compounds were added and cells were allowed to incubate for 30 min at 37° C., 5% CO2. Cells were then stimulated with 15 μg/ml Phyto-hemagglutinin (PHA; Sigma) for 22 hours at 37° C., 5% CO2.
Before sampling of the supernatants, cells were spun down (200*g/5 min/RT). The amount of IL-2 released into the supernatant was quantified with the human IL-2 AlphaLisa kit (Perkin Elmer) according to manufacturer's instructions. Luminescence proximity measurements were carried out in the Synergy H4 reader (BioTek) employing the fluorescence setting of the reader (ex: 680/30 nm; em: 620/40 nm).
Inhibition of IL-2 production/release in/from Jurkat T cells was quantified as follows: Zero percent inhibition (MAX) was defined as the [IL-2] determined in supernatants derived from cells to which PHA & DMSO-only had been added instead of compound. Hundred percent inhibition (MIN) was defined as the [IL-2] determined in supernatants derived from cells that had been pre-treated with 1 μM CyclosporineA (Sigma) before the addition of 15 μg/ml PHA.
For routine IC50 determinations of compounds, 8 concentrations of a serial dilution (1:3.16) were tested, starting off from 10 μM.

Cc1cc(S(C)(=O)=O)ncc1N1CCc2[nH]c(-c3ccc(F)cc3F)cc2C1 [Example 78, 2-(2,4-Difluoro-phenyl)-5-(4-methyl-6-methylsulfonyl-pyridin-3-yl)-4,5,6,7-tetrahydro-1H-pyrrolo[3,2-c]pyridine]
inhibition at 10 µM (CRAC channel): > 70% | IC50 [1]: 0.5 to 1 µM

Cc1cc([S+](C)[O-])ncc1N1CCc2[nH]c(-c3c(F)cccc3F)cc2C1 (stereo not shown) [Example 70, 2-(2,6-Difluoro-phenyl)-5-[4-methyl-6-(methylsulfinyl)-pyridin-3-yl]-4,5,6,7-tetrahydro-1H-pyrrolo[3,2-c]pyridine]
inhibition at 10 µM (CRAC channel): > 70% | IC50 [1]: 1 to 5 µM

Cc1cc(OC(F)(F)F)ncc1N1CCc2[nH]c(-c3c(F)cccc3F)cc2C1 [Example 111, 2-(2,6-Difluoro-phenyl)-5-[4-methyl-6-(trifluoromethyloxy)-pyridin-3-yl]-4,5,6,7-tetrahydro-1H-pyrrolo[3,2-c]pyridine]
inhibition at 10 µM (CRAC channel): < 50% | IC50 [1]: < 0.5 µM

Cc1cc2c(cc1N1CCc3[nH]c(-c4c(F)cccc4F)cc3C1)OC(F)(F)O2 [Example 20, 5-(2,2-Difluoro-6-methyl-1,3-benzodioxol-5-yl)-2-(2,6-difluoro-phenyl)-4,5,6,7-tetrahydro-1H-pyrrolo[3,2-c]pyridine]
inhibition at 10 µM (CRAC channel): < 50% | IC50 [1]: 1 to 5 µM

Cc1ccccc1N1CCc2[nH]c(-c3c(F)cccc3F)cc2C1 [Example 22, 2-(2,6-Difluoro-phenyl)-5-o-tolyl-4,5,6,7-tetrahydro-1H-pyrrolo[3,2-c]pyridine]
inhibition at 10 µM (CRAC channel): > 70% | IC50 [1]: 1 to 5 µM

Cc1cc(Cl)ccc1N1CCc2[nH]c(-c3c(F)cccc3F)cc2C1 [Example 11, 5-(4-Chloro-2-methyl-phenyl)-2-(2,6-difluoro-phenyl)-4,5,6,7-tetrahydro-1H-pyrrolo[3,2-c]pyridine]
inhibition at 10 µM (CRAC channel): < 50% | IC50 [1]: 0.5 to 1 µM

Fc1cccc(F)c1-c1cc2c([nH]1)CCN(c1cc3c(cc1Cl)OC(F)(F)O3)C2 [Example 9, 5-(6-Chloro-2,2-difluoro-1,3-benzodioxol-5-yl)-2-(2,6-difluoro-phenyl)-4,5,6,7-tetrahydro-1H-pyrrolo[3,2-c]pyridine]
inhibition at 10 µM (CRAC channel): < 50% | IC50 [1]: 1 to 5 µM

Cc1cc(S(=O)(=O)N2CCCC2)ccc1N1CCc2[nH]c(-c3c(F)cccc3F)cc2C1 [Example 121, 2-(2,6-Difluoro-phenyl)-5-[2-methyl-4-(pyrrolidin-1-ylsulfonyl)-phenyl]-4,5,6,7-tetrahydro-1H-pyrrolo[3,2-c]pyridine]
inhibition at 10 µM (CRAC channel): > 70% | IC50 [1]: 1 to 5 µM

Cc1cc(S(C)(=O)=O)ncc1N1CCc2[nH]c(-c3c(F)cccc3F)c(F)c2C1 [Example 142, 2-(2,6-Difluoro-phenyl)-3-fluoro-5-(4-methyl-6-methylsulfonyl-pyridin-3-yl)-4,5,6,7-tetrahydro-1H-pyrrolo[3,2-c]pyridine]
inhibition at 10 µM (CRAC channel): > 70% | IC50 [1]: < 0.5 µM

CCOc1cc(OC)c(N2CCc3[nH]c(-c4c(F)cccc4F)cc3C2)cn1 [Example 143, 2-(2,6-Difluoro-phenyl)-5-(6-ethoxy-4-methoxy-pyridin-3-yl)-4,5,6,7-tetrahydro-1H-pyrrolo[3,2-c]pyridine]
inhibition at 10 µM (CRAC channel): < 50% | IC50 [1]: 1 to 5 µM

Cc1nc(Cl)ccc1N1CCc2[nH]c(-c3c(F)cccc3F)cc2C1 [Example 15, 5-(6-Chloro-2-methyl-pyridin-3-yl)-2-(2,6-difluoro-phenyl)-4,5,6,7-tetrahydro-1H-pyrrolo[3,2-c]pyridine]
inhibition at 10 µM (CRAC channel): > 70% | IC50 [1]: 1 to 5 µM

Cc1cc(S(=O)(=O)NCC(F)(F)F)ccc1N1CCc2[nH]c(-c3c(F)cccc3F)cc2C1 [Example 136, 4-[2-(2,6-Difluoro-phenyl)-4,5,6,7-tetrahydro-1H-pyrrolo[3,2-c]pyridin-5-yl]-3-methyl-N-(2,2,2-trifluoro-ethyl)-benzenesulfonic acid amide]
inhibition at 10 µM (CRAC channel): < 50% | IC50 [1]: 1 to 5 µM

CCc1sc(-c2cccnc2)nc1N1CCc2[nH]c(-c3c(F)cccc3F)cc2C1 [Example 31, 4-[2-(2,6-Difluoro-phenyl)-4,5,6,7-tetrahydro-1H-pyrrolo[3,2-c]pyridin-5-yl]-5-ethyl-2-pyridin-3-yl-thiazole]
inhibition at 10 µM (CRAC channel): < 50% | IC50 [1]: < 0.5 µM

Fc1cccc(F)c1-c1cc2c([nH]1)CCN(c1cccc(C(F)(F)F)c1)C2 [Example 7, 2-(2,6-Difluoro-phenyl)-5-[3-(trifluoromethyl)phenyl]-4,5,6,7-tetrahydro-1H-pyrrolo[3,2-c]pyridine]
inhibition at 10 µM (CRAC channel): < 50% | IC50 [1]: 1 to 5 µM

Cc1sc(-c2cccnc2)nc1N1CCc2[nH]c(-c3c(F)cccc3F)c(I)c2C1 [Example 66, 4-[2-(2,6-Difluoro-phenyl)-3-iodo-4,5,6,7-tetrahydro-1H-pyrrolo[3,2-c]pyridin-5-yl]-5-methyl-2-pyridin-3-yl-thiazole]
inhibition at 10 µM (CRAC channel): < 50% | IC50 [1]: 1 to 5 µM

Cc1cc(C#N)cnc1N1CCc2[nH]c(C3CCCCC3)cc2C1 [Example 102, 6-(2-Cyclohexyl-4,5,6,7-tetrahydro-1H-pyrrolo[3,2-c]pyridin-5-yl)-5-methyl-nicotinonitrile]
inhibition at 10 µM (CRAC channel): > 70% | IC50 [1]: 0.5 to 1 µM

Cc1sc(-c2cccnc2)nc1N1CCc2[nH]c(-c3c(F)cccc3F)cc2C1=O [Example 1, 2-(2,6-Difluoro-phenyl)-5-(5-methyl-2-pyridin-3-yl-thiazol-4-yl)-1,5,6,7-tetrahydro-pyrrolo[3,2-c]pyridin-4-one]
inhibition at 10 µM (CRAC channel): 50 to 70% | IC50 [1]: 1 to 5 µM

Cc1sc(S(C)(=O)=O)nc1N1CCc2[nH]c(-c3c(F)cccc3F)cc2C1 [Example 133, 4-[2-(2,6-Difluoro-phenyl)-4,5,6,7-tetrahydro-1H-pyrrolo[3,2-c]pyridin-5-yl]-5-methyl-2-methylsulfonyl-thiazole]
inhibition at 10 µM (CRAC channel): > 70% | IC50 [1]: 0.5 to 1 µM

Cc1cc(C#N)ccc1N1CCc2[nH]c(-c3c(F)cccc3F)cc2C1 [Example 12, 4-[2-(2,6-Difluoro-phenyl)-4,5,6,7-tetrahydro-1H-pyrrolo[3,2-c]pyridin-5-yl]-3-methyl-benzonitrile]
inhibition at 10 µM (CRAC channel): 50 to 70% | IC50 [1]: < 0.5 µM

Cc1cc(S(=O)(=O)C(F)(F)F)ccc1N1CCc2[nH]c(-c3c(F)cccc3F)cc2C1 [Example 86, 2-(2,6-Difluoro-phenyl)-5-[2-methyl-4-(trifluoromethylsulfonyl)-phenyl]-4,5,6,7-tetrahydro-1H-pyrrolo[3,2-c]pyridine]
inhibition at 10 µM (CRAC channel): < 50% | IC50 [1]: 1 to 5 µM

Cn1nc(N2CCc3[nH]c(-c4c(F)cccc4F)cc3C2)cc1C1CC1 [Example 107, 5-(5-Cyclopropyl-1-methyl-1H-pyrazol-3-yl)-2-(2,6-difluoro-phenyl)-4,5,6,7-tetrahydro-1H-pyrrolo[3,2-c]pyridine]
inhibition at 10 µM (CRAC channel): > 70% | IC50 [1]: 1 to 5 µM

Cn1nc(C2(C(F)(F)F)CC2)cc1N1CCc2[nH]c(-c3c(F)cccc3F)cc2C1 [Example 123, 2-(2,6-Difluoro-phenyl)-5-[2-methyl-5-[1-(trifluoromethyl)-cyclopropyl]-2H-pyrazol-3-yl]-4,5,6,7-tetrahydro-1H-pyrrolo[3,2-c]pyridine]
inhibition at 10 µM (CRAC channel): > 70% | IC50 [1]: 0.5 to 1 µM

CCOc1cc(C)c(N2CCc3[nH]c(-c4c(F)cccc4F)cc3C2)cn1 [Example 69, 2-(2,6-Difluoro-phenyl)-5-(6-ethoxy-4-methyl-pyridin-3-yl)-4,5,6,7-tetrahydro-1H-pyrrolo[3,2-c]pyridine]
inhibition at 10 µM (CRAC channel): > 70% | IC50 [1]: 0.5 to 1 µM

Cc1sc(-c2ccccc2)nc1N1CCc2[nH]c(-c3c(F)cccc3F)cc2C1 [Example 23, 4-[2-(2,6-Difluoro-phenyl)-4,5,6,7-tetrahydro-1H-pyrrolo[3,2-c]pyridin-5-yl]-5-methyl-2-phenyl-thaizole]
inhibition at 10 µM (CRAC channel): < 50% | IC50 [1]: 1 to 5 µM

Cc1sc(-c2ccncc2)nc1N1CCc2[nH]c(-c3c(F)cccc3F)cc2C1 [Example 24, 4-[2-(2,6-Difluoro-phenyl)-4,5,6,7-tetrahydro-1H-pyrrolo[3,2-c]pyridin-5-yl]-5-methyl-2-pyridin-4-yl-thiazole]
inhibition at 10 µM (CRAC channel): > 70% | IC50 [1]: < 0.5 µM

Cc1cc(S(C)(=O)=O)ncc1N1CCc2[nH]c(-c3ccccc3F)cc2C1 [Example 79, 2-(2-Fluorophenyl)-5-(4-methyl-6-methylsulfonyl-pyridin-3-yl)-4,5,6,7-tetrahydro-1H-pyrrolo[3,2-c]pyridine]
inhibition at 10 µM (CRAC channel): > 70% | IC50 [1]: 0.5 to 1 µM
